The values below come from patent publication US9650399B2, “Salicylic acid derivatives, pharmaceutically acceptable salt thereof, composition thereof and method of use thereof” (The Governing Council of the University of Toronto, priority 2012, dated 2017).

One assay has as its system BTSC30M. In words: alamarBlue cell viability, BTSC 30M. It is filed as cell-based, human. The following applies: for IC50: Homo sapiens. Here is the method: (§1) First, the library was screened for biological activity against a set of three representative GBM BTSCs derived from GBM patients, including the very aggressive GBM BTSC lines, BTSC73M, BTSC30M, BTSC68EF. Dissociated BTSC spheres were seeded at 1500 cells/96-well and treated with drug compound or vehicle (DMSO) one day after plating. Cell viability following drug treatment was assessed after 72 hrs using the ALAMARBLUE™ assay (Invitrogen) according to the manufacturer's instructions. All culture experiments were performed in triplicate with a minimum of three wells per condition.
(§2) BTSC spheres were dissociated to single cells with the enzyme Accumax (Innovative Technologies), seeded at 1500 cells/96-well and treated with drug or vehicle (DMSO) one day after plating. […] BTSC spheres were dissociated to single cells as above and plated in 96 well plates in triplicate at 3000 cells/96-well. […] Cell viability following drug treatment was assessed three days later using the ALAMARBLUE™ assay (Invitrogen) according to the manufacturer's instructions. All culture experiments were performed in triplicate with a minimum of three wells per condition.
A general note: Alamar Blue is a resazurin reagent that responds to reducing activity.

The subject of assay [1] is Breast cancer cells (MDA-MB-468). In words: IC50 in breast cancer cells. The format is cell-based. The following applies: Homo sapiens, Table 6.
For the next assay, the system named is BTSC73M. In words: alamarBlue cell viability, BTSC 73M. It is filed as cell-based, human. The following applies: alamarBlue; for IC50: Homo sapiens. Here is the method: as §1, §2
Assay [2] relates to leukemia cancer cells (AML-2). In words: IC50 in leukemia cancer cells. It is filed as cell-based. The following applies: Table 6.
The test system of another assay is BTSCs. In words: alamarBlue cytotoxicity across BTSC lines. It is filed as cell-based, human. On the procedure:
as §1, §2

The next assay has as its system 147EF. In words: alamarBlue cell viability, BTSC 147EF. It is filed as cell-based, human. The following applies: Table 4 library screen; for IC50: Homo sapiens. The text has this:
BTSC spheres were dissociated to single cells with the enzyme Accumax (Innovative Technologies), seeded at 1500 cells/96-well and treated with drug or vehicle (DMSO) one day after plating. Cytotoxicity studies were repeated independently at Sickkids Hospital using BTSC lines 25M, 67EF, 73EF, 84EF and 127EF. BTSC spheres were dissociated to single cells as above and plated in 96 well plates in triplicate at 3000 cells/96-well. In both sets of experiments drugs were used as serial dilutions within the range of 5 μM to 100 nM in the first set and 25 μM to 10 nM. Cell viability following drug treatment was assessed three days later using the ALAMARBLUE™ assay (Invitrogen) according to the manufacturer's instructions. All culture experiments were performed in triplicate with a minimum of three wells per condition. Table 4 below illustrates a screen of the library against a number of BTSCs using ALAMARBLUE™ assay.

In a further assay the test system is Prostate (DU145). In words: IC50 in prostate cancer cells. It is filed as cell-based. The following applies: Homo sapiens, DU-145; Table 6.
For the next assay, the system named is BTSC68EF. In words: alamarBlue cell viability, BTSC 68EF. It is filed as cell-based, human. Particulars: Table 4 library screen, alamarBlue; for IC50: Homo sapiens, read-out: 68EF IC50. On the procedure: as §1, §2
A further assay deals with pSTAT3 (Y705). In words: Western blot of phosphorylated STAT3 in BTSCs. It is filed as cell-based, human. The following applies: BTSC 73M, 1 μM inhibitor. From the text:
Blots were stained with antibodies: phospho-Y705, phospho-S727, Bcl-xL, cyclin D1, PARP and Actin. Bands were visualized with the ECL PLUS™ Western Blotting Detection System and […]™ (Amersham). […] BTSC spheres were lysed in modified RIPA buffer supplemented with Complete Mini protease (Roche) and Halt phosphatase (Thermo Scientific) inhibitor cocktails. […] Blots were stained with the following antibodies: phospho-STAT3 Y705 (1:1000, Cell Signalling Technology), phospho-STAT3 S727 (1:1000, Cell Signalling Technology), STAT3 (1:1000, Santa Cruz Biotechnology), Bcl-xL (1:1000, Cell Signalling Technology), cyclin D1 (1:1000, Cell Signalling Technology) PARP (1:1000, Cell Signalling Technology) and Actin (1:2500, Santa Cruz Biotechnology). HRP conjugated secondary antibodies, goat anti-rabbit (Cell Signalling Technology) were used at 1:2000 and donkey anti-mouse, donkey anti-goat, and goat anti-rabbit, (Calbiochem) were used at 1:6000. Bands were visualized with the ECL Plus Western Blotting Detection System and Hyperfilm (Amersham).
For orientation: A western blot detects proteins with antibodies after separation by electrophoresis.

Setting [3] is: read-out: 30M IC50 (μM), Table 4 library screen, alamarBlue.
The mark [4] stands for this setting: read-out: IC50 BTSC 30M, Table 6, in parallel with other cancer lines.
[5] abbreviates: Table 4 library screen, read-out: 73M IC50.
Where [6] appears, read: Table 4 library screen, alamarBlue.

Where two headings read alike, the source gives them in different places.

For `CN(CC(=O)N(Cc1ccc(C2CCCCC2)cc1)c1ccc(C(=O)O)c(F)c1)S(=O)(=O)c1c(F)c(F)c(F)c(F)c1F` [Compound 33, 4-(N-(4-cyclohexylbenzyl)-2-(2,3,4,5,6-pentafluoro-N-methylphenylsulfonamido)acetamido)-2-fluorobenzoic acid], the IC50 in the assay on BTSC30M (setting [3]) was 0.724 µM; with BTSC30M (read-out: IC50 (nM) in BTSC 30M), 0.724 ± 0.013 µM; in the assay with BTSC30M (setting [4]), 0.689 µM; in assay [1], under 1000 nM; in the assay on BTSC73M (setting [5]), 1.23 µM; in assay [2], under 1000 nM. The half-inhibitory concentration (IC50) is 100 to 3800 nM with BTSCs (Homo sapiens, collective range, units given in the value, read-out: IC50 values of the top four ranked compounds against BTSCs); 935 nM with 147EF; 14200 nM in the assay with Prostate (DU145); 1460 nM in the assay on BTSC68EF. For the same compound, the EC50 with BTSCs (Homo sapiens, collective range over 8 BTSC lines, read-out: EC50s across all 8 BTSCs evaluated) is 66 to 1140 nM.
For the compound `CN(CC(=O)N(Cc1ccc(C2CCCCC2)cc1)c1ccc(N)cc1)S(=O)(=O)c1c(F)c(F)c(F)c(F)c1F` [Compound 10, N-(4-aminophenyl)-N-(4-cyclohexylbenzyl)-2-(2,3,4,5,6-pentafluoro-N-methylphenylsulfonamido)acetamide], the IC50 in the assay on BTSC30M (setting [3]) was determined as 1.33 µM; with BTSC73M (setting [5]), 1.81 µM; in the assay with 147EF it was 1460 nM; in the assay with BTSC68EF it was 1720 nM.
As for `Cc1ccc(S(=O)(=O)N(C)CC(=O)N(Cc2ccc(C3CCCCC3)cc2)c2ccc([N+](=O)[O-])cc2)cc1` [Compound 9, N-(4-cyclohexylbenzyl)-2-(N,4-dimethylphenylsulfonamido)-N-(4-nitrophenyl)acetamide], in the assay with BTSC30M (setting [6]), the “30M IC50 (μM)” value is “no effect”. Moreover, the “73M IC50 (μM)” value with BTSC73M (Table 4 library screen) is given as “no effect”. The “147EF IC50 (μM)” value in the assay with 147EF was “no effect”. In addition, the “68EF IC50 (μM)” value with BTSC68EF is listed as “no effect”.
On to `CC(=O)Oc1cc(N(Cc2ccc(C3CCCCC3)cc2)C(=O)CN(C)S(=O)(=O)c2ccc(C)cc2)ccc1C(=O)O` [Compound 23, 2-acetoxy-4-(N-(4-cyclohexylbenzyl)-2-(N,4-dimethylphenylsulfonamido)acetamido)benzoic acid], for which the “30M IC50 (μM)” value with BTSC30M (setting [6]) was “no effect”. For the same compound, the “73M IC50 (μM)” value in the assay with BTSC73M (Table 4 library screen) was “no effect”. Moreover, the “147EF IC50 (μM)” value in the assay on 147EF is given as “no effect”. Besides, the “68EF IC50 (μM)” value in the assay on BTSC68EF was “no effect”.
On to `CN(CC(=O)N(Cc1ccc(C2CCCCC2)cc1)c1ccc(C(=O)O)c(O)c1)S(=O)(=O)c1c(F)c(F)c(F)c(F)c1F` [Compound 1, reference compound], for which the “activity against BTSCs (in words)” value in the assay on BTSCs (cytotoxicity, alamarBlue) is reported as “low μM activity”.
Consider `Cc1ccc(S(=O)(=O)N(C)CC(=O)N(Cc2ccc(C3CCCCC3)cc2)c2ccc(C(=O)O)c(F)c2)cc1` [Compound 43, 4-(N-(4-cyclohexylbenzyl)-2-(N,4-dimethylphenylsulfonamido)acetamido)-2-fluorobenzoic acid], for which, in the assay with BTSC30M (setting [6]), the “30M IC50 (μM)” value is given as “no effect”. The “73M IC50 (μM)” value in the assay on BTSC73M (Table 4 library screen) is reported as “no effect”. In addition, the “147EF IC50 (μM)” value in the assay on 147EF is on record as “no effect”. Also, in the assay with BTSC68EF, the “68EF IC50 (μM)” value was “no effect”.
As for `CC(=O)Oc1cc(N(Cc2ccc(C3CCCCC3)cc2)C(=O)CN(C)S(=O)(=O)c2c(F)c(F)c(F)c(F)c2F)ccc1C(=O)O` [SH-04-08, 2-acetoxy-4-(N-(4-cyclohexylbenzyl)-2-(2,3,4,5,6-pentafluoro-N-methylphenylsulfonamido)acetamido)benzoic acid], the concentration for half-maximal inhibition (IC50) in the assay with BTSC30M (setting [4]) is 0.9 µM; in assay [1] it was under 1000 nM; in assay [2], under 1000 nM; in the assay on Prostate (DU145), 12000 nM.
Turning to `Cc1ccc(S(=O)(=O)N(C)CC(=O)N(Cc2ccc(C3CCCCC3)cc2)c2ccc(N)cc2)cc1` [Compound 11, N-(4-aminophenyl)-N-(4-cyclohexylbenzyl)-2-(N,4-dimethylphenylsulfonamido)acetamide], the “30M IC50 (μM)” value with BTSC30M (setting [6]) was “no effect”. In addition, the “73M IC50 (μM)” value in the assay on BTSC73M (Table 4 library screen) is on record as “no effect”. Moreover, the “147EF IC50 (μM)” value with 147EF is given as “no effect”. For the same compound, in the assay with BTSC68EF, the “68EF IC50 (μM)” value was “no effect”.
Regarding `Cc1ccc(S(=O)(=O)N(C)CC(=O)N(Cc2ccc(C3CCCCC3)cc2)c2ccc(O)cc2)cc1` [Compound 45, N-(4-cyclohexylbenzyl)-2-(N,4-dimethylphenylsulfonamido)-N-(4-hydroxyphenyl)acetamide], the “30M IC50 (μM)” value with BTSC30M (setting [6]) is “no effect”. Also, in the assay on BTSC73M (Table 4 library screen), the “73M IC50 (μM)” value is “no effect”. For the same compound, the “147EF IC50 (μM)” value in the assay on 147EF was “no effect”. In the assay with BTSC68EF, the “68EF IC50 (μM)” value was “no effect”.
On to `C[C@H](NC(=O)/C(C#N)=C/c1cccc(Br)n1)c1ccccc1` [WP1066, reference compound], for which the IC50 came to 1.8 ± 0.22 µM with BTSC30M (read-out: IC50 (μM) 30M, Table 2, BTSC 30M, alamarBlue, 72 hrs) and 2.1 µM in the assay with BTSC73M (Table 2, BTSC 73M, 72 hrs, read-out: IC50 (μM) 73M). Besides, the “pSTAT3 suppression, comparative Western blot” value in the assay on pSTAT3 (Y705) is “equipotent pSTAT3 suppression”.
Regarding `Cc1ccc(S(=O)(=O)N(C)CC(=O)N(Cc2ccc(C3CCCCC3)cc2)c2ccc(C(=O)NO)cc2)cc1` [Compound 44, 4-(N-(4-cyclohexylbenzyl)-2-(N,4-dimethylphenylsulfonamido)acetamido)-N-hydroxybenzamide], in the assay with BTSC30M (setting [6]), the “30M IC50 (μM)” value is given as “no effect”. The “73M IC50 (μM)” value with BTSC73M (Table 4 library screen) is given as “no effect”. In addition, the IC50 in the assay on 147EF stood at 2450 nM; in the assay with BTSC68EF, 1740 nM.

The IC50 is the midpoint of a concentration-inhibition curve.
